According to patent US12344610B2, “APOL1 inhibitors and methods of use” (Maze Therapeutics, Inc., priority 2022, dated 2025):

Molecular target: T1, APOL1 G2 (Homo sapiens, UniProt O14791, DEL388-389)
T1 construct: expressed in transfected cells; host or cells: HEK293 T-REx clonal line stably expressing GCaMP6f (HEK T-REx/GCaMP6f/APOL1 G2 K6.3), doxycycline induced
T1 sequence (O14791 with tags, fused parts or gaps DEL388-389): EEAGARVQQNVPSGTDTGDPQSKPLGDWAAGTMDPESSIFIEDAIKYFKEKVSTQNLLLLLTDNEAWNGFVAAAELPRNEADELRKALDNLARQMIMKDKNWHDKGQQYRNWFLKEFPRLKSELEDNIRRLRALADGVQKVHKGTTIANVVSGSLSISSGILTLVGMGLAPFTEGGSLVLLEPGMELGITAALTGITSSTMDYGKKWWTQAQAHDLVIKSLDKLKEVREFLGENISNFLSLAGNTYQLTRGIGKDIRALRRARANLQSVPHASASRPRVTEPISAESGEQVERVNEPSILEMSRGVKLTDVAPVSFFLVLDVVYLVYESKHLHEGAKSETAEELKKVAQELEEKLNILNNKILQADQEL
Assay: APOL1-mediated calcium transport (calcium influx) assay, HEK T-REx/GCaMP6f/APOL1 G2 K6.3 cells, FLIPR TETRA
Assay type: cell-based
Conditions: prevention of calcium influx; geometric mean of at least 2 assay runs; † = average of a technical replicate from a single assay run
In short: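 A HEK293 T-REx clone stably expressing GCaMP6f had APOL1 G2 induced with doxycycline (20 ng/mL solution added) for 6 h. Cells were then washed into Ca2+-free Tyrode's buffer (pH 7.4) and preincubated with compounds (duplicate 8-point) for 10 min at room temperature. Ca2+ injection to 5 mM final produced FLIPR GCaMP fluorescence, giving AC50 for influx inhibition (geometric mean, ≥2 runs).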

**Q.** `Cc1nc2cc(OCCN3CCC4(CC3)C(=O)Nc3ccc(Cl)cc34)cc(C(F)(F)F)c2n1[C@H]1C[C@@](C)(O)C1` [Compound 442, 5-chloro-1′-[2-({2-methyl-1-[(cis)-3-hydroxy-3-methylcyclobutyl]-7-(trifluoromethyl)-1H-1,3-benzodiazol-5-yl}oxy)ethyl]-1,2-dihydrospiro[indole-3,4′-piperidin]-2-one] was tested. Which AC50 did it give?
**A.** Its AC50 is 2140 nM.

**Q.** How did the AC50 turn out when `C[C@]1(O)C[C@@H](n2c(=O)ccc3cc(OCCN4CCC5(CC4)C(=O)Nc4ccc(Cl)cc45)cnc32)C1` [Compound 323, 5-chloro-1′-[2-({7-oxo-8-[(cis)-3-hydroxy-3-methylcyclobutyl]-7,8-dihydro-1,8-naphthyridin-3-yl}oxy)ethyl]-1,2-dihydrospiro[indole-3,4′-piperidin]-2-one] was run?
**A.** The AC50 was 400 nM.

**Q.** How did the AC50 turn out when `CN1C(=O)CCc2cc(OCCN3CCC4(CC3)C(=O)Nc3ccc(C#N)cc34)cnc21` [Compound 79, 1′-{2-[(8-methyl-7-oxo-5,6,7,8-tetrahydro-1,8-naphthyridin-3-yl)oxy]ethyl}-2-oxo-1,2-dihydrospiro[indole-3,4′-piperidine]-5-carbonitrile] was run?
**A.** Its AC50 is 687 nM.

**Q.** Which AC50 does the source give for `C[C@]1(O)C[C@@H](n2ncc3cc(OCCN4CCC5(CC4)C(=O)Nc4ccc(C#N)cc45)cc(C(F)(F)F)c32)C1` [Compound 465, 2-oxo-1′-[2-({1-[(cis)-3-hydroxy-3-methylcyclobutyl]-7-(trifluoromethyl)-1H-indazol-5-yl}oxy)ethyl]-1,2-dihydrospiro[indole-3,4′-piperidine]-5-carbonitrile] here?
**A.** The AC50 was 748 nM.

**Q.** With `O=C1Nc2ccc(Cl)cc2C12CCN(CCOc1cnc(N3CC4(CC(O)C4)C3)nc1)CC2` [Compound 396, 5-chloro-1′-{2-[(2-{6-hydroxy-2-azaspiro[3.3]heptan-2-yl}pyrimidin-5-yl)oxy]ethyl}-1,2-dihydrospiro[indole-3,4′-piperidin]-2-one] as the compound, how does the AC50 read?
**A.** The AC50 was 531 nM.

**Q.** `CC(=O)N1Cc2ccc(OCCN3CCC4(CC3)C(=O)Nc3ccc(Cl)cc34)cc2C1` [Compound 57, 1′-{2-[(2-acetyl-2,3-dihydro-1H-isoindol-5-yl)oxy]ethyl}-5-chloro-1,2-dihydrospiro[indole-3,4′-piperidin]-2-one] was tested. Which AC50 did it give?
**A.** The AC50 was 706 nM.

**Q.** With `CS(=O)(=O)N1CCCc2cc(OCCN3CCC4(CC3)C(=O)Nc3ccc(Cl)cc34)ccc21` [Compound 53, 5-chloro-1′-{2-[(1-methanesulfonyl-1,2,3,4-tetrahydroquinolin-6-yl)oxy]ethyl}-1,2-dihydrospiro[indole-3,4′-piperidin]-2-one] as the compound, how does the AC50 read?
**A.** The AC50 was 838 nM.

**Q.** For `C[C@]1(O)C[C@@H](n2c(=O)ccc3cc(OCCN4CCC5(CC4)C(=O)Nc4ccc(C(F)F)cc45)cnc32)C1` [Compound 324, 5-(difluoromethyl)-1′-[2-({7-oxo-8-[(cis)-3-hydroxy-3-methylcyclobutyl]-7,8-dihydro-1,8-naphthyridin-3-yl}oxy)ethyl]-1,2-dihydrospiro[indole-3,4′-piperidin]-2-one], which AC50 is on record?
**A.** The AC50 was 942 nM.

**Q.** `Cc1nc2cc(OCCN3CCC4(CC3)C(=O)Nc3ccc(C#N)cc34)cc(C(F)(F)F)c2n1[C@H]1C[C@@](C)(O)C1` [Compound 443, 1′-[2-({2-methyl-1-[(cis)-3-hydroxy-3-methylcyclobutyl]-7-(trifluoromethyl)-1H-1,3-benzodiazol-5-yl}oxy)ethyl]-2-oxo-1,2-dihydrospiro[indole-3,4′-piperidine]-5-carbonitrile] was tested. Which AC50 did it give?
**A.** Its AC50 is 2670 nM.

**Q.** For `C[C@]1(O)C[C@@H](n2ncc3cc(OCCN4CCC5(CC4)C(=O)Nc4ccc(Cl)cc45)cnc32)C1` (single isomer, unassigned) [Compound 357, 5-chloro-1′-[2-({1-[(cis)-3-hydroxy-3-methylcyclobutyl]-1H-pyrazolo[3,4-b]pyridin-5-yl}oxy)ethyl]-1,2-dihydrospiro[indole-3,4′-piperidin]-2-one], which AC50 is on record?
**A.** The AC50 was 412 nM.

**Q.** How did the AC50 turn out when `CC1(O)CC2(CN(c3ncc(OCCN4CCC5(CC4)C(=O)Nc4ccc(Cl)cc45)cn3)C2)C1` [Compound 459, 5-chloro-1′-{2-[(2-{6-hydroxy-6-methyl-2-azaspiro[3.3]heptan-2-yl}pyrimidin-5-yl)oxy]ethyl}-1,2-dihydrospiro[indole-3,4′-piperidin]-2-one] was run?
**A.** Its AC50 is 370 nM.

**Q.** For `CS(=O)(=O)C1(c2ncc(OCCN3CCC4(CC3)C(=O)Nc3ccc(Cl)cc34)cn2)CC1` [Compound 4, 5-chloro-1′-(2-{[2-(1-methanesulfonylcyclopropyl)pyrimidin-5-yl]oxy}ethyl)-1,2-dihydrospiro[indole-3,4′-piperidin]-2-one], which AC50 is on record?
**A.** Its AC50 is 670 nM.

**Q.** With `NC(=O)c1ccc(OCCN2CCC3(CC2)C(=O)Nc2ccc(Cl)cc23)cc1F` [Compound 46, 4-(2-{5-chloro-2-oxo-1,2-dihydrospiro[indole-3,4′-piperidin]-1′-yl}ethoxy)-2-fluorobenzamide] as the compound, how does the AC50 read?
**A.** Its AC50 is 434 nM.

**Q.** `CS(=O)(=O)c1ccc(OCCN2CCC3(CC2)C(=O)Nc2ccc(Cl)cc23)cc1F` [Compound 63, 5-chloro-1′-[2-(3-fluoro-4-methanesulfonylphenoxy)ethyl]-1,2-dihydrospiro[indole-3,4′-piperidin]-2-one] was tested. Which AC50 did it give?
**A.** Its AC50 is 461 nM.

**Q.** For `CC(C)(O)c1ncc(OCCN2CCC3(CC2)C(=O)Nc2ccc(C#N)cc23)cc1C(F)(F)F` [Compound 411, 1′-(2-{[6-(2-hydroxypropan-2-yl)-5-(trifluoromethyl)pyridin-3-yl]oxy}ethyl)-2-oxo-1,2-dihydrospiro[indole-3,4′-piperidine]-5-carbonitrile], which AC50 is on record?
**A.** The AC50 was 436 nM.

**Q.** For `CC1(O)CC(CN2C(=O)CCc3cc(OCCN4CCC5(CC4)C(=O)Nc4ccc(Cl)cc45)cnc32)C1` (single isomer, unassigned) [Compound 322, 5-chloro-1′-{2-[(7-oxo-8-{[(trans) or (cis)-3-hydroxy-3-methylcyclobutyl]methyl}-5,6,7,8-tetrahydro-1,8-naphthyridin-3-yl)oxy]ethyl}-1,2-dihydrospiro[indole-3,4′-piperidin]-2-one], which AC50 is on record?
**A.** Its AC50 is 588 nM.

**Q.** With `C[C@]1(O)C[C@@H](n2cc3cc(OCCN4CCC5(CC4)C(=O)Nc4ccc(C#N)cc45)cc(C(F)(F)F)c3n2)C1` [Compound 428, 2-oxo-1′-[2-({2-[(cis)-3-hydroxy-3-methylcyclobutyl]-7-(trifluoromethyl)-2H-indazol-5-yl}oxy)ethyl]-1,2-dihydrospiro[indole-3,4′-piperidine]-5-carbonitrile] as the compound, how does the AC50 read?
**A.** The AC50 was 1200 nM.

**Q.** For `CS(=O)(=O)c1ccc(OCCN2CCC3(CC2)C(=O)Nc2ccc(Cl)cc23)cn1` [Compound 64, 5-chloro-1′-{2-[(6-methanesulfonylpyridin-3-yl)oxy]ethyl}-1,2-dihydrospiro[indole-3,4′-piperidin]-2-one], which AC50 is on record?
**A.** Its AC50 is 455 nM.

**Q.** How did the AC50 turn out when `Cn1ncc2cc(OCCN3CCC4(CC3)C(=O)Nc3ccccc34)ccc21` [Compound 70, 1′-{2-[(1-methyl-1H-indazol-5-yl)oxy]ethyl}-1,2-dihydrospiro[indole-3,4′-piperidin]-2-one] was run?
**A.** Its AC50 is 124 nM.

**Q.** `CN(c1ccc(OCCN2CCC3(CC2)C(=O)Nc2ccc(Cl)cc23)cc1)S(C)(=O)=O` [Compound 76, N-[4-(2-{5-chloro-2-oxo-1,2-dihydrospiro[indole-3,4′-piperidin]-1′-yl}ethoxy)phenyl]-N-methylmethanesulfonamide] was tested. Which AC50 did it give?
**A.** The AC50 was 678 nM.

**Q.** With `CC(=O)N1CCCc2cc(OCCN3CCC4(CC3)C(=O)N(C)c3ccccc34)ccc21` [Compound 36, 1′-{2-[(1-acetyl-1,2,3,4-tetrahydroquinolin-6-yl)oxy]ethyl}-1-methyl-1,2-dihydrospiro[indole-3,4′-piperidin]-2-one] as the compound, how does the AC50 read?
**A.** Its AC50 is 223 nM.

**Q.** How did the AC50 turn out when `Cc1cc(OCCN2CCC3(CC2)C(=O)Nc2ccc(Cl)cc23)ccc1C(N)=O` [Compound 49, 4-(2-{5-chloro-2-oxo-1,2-dihydrospiro[indole-3,4′-piperidin]-1′-yl}ethoxy)-2-methylbenzamide] was run?
**A.** Its AC50 is 875 nM.

**Q.** For `O=C1Nc2ccc(Cl)cc2C12CCN(CCOc1ccc(S(=O)(=O)C3CC3)cc1)CC2` [Compound 43, 5-chloro-1′-{2-[4-(cyclopropanesulfonyl)phenoxy]ethyl}-1,2-dihydrospiro[indole-3,4′-piperidin]-2-one], which AC50 is on record?
**A.** The AC50 was 507 nM.

**Q.** How did the AC50 turn out when `Cc1ccc2c(c1)C1(CCN(CCOc3ccc(S(C)(=O)=O)cc3)CC1)C(=O)N2` [Compound 66, 1′-[2-(4-methanesulfonylphenoxy)ethyl]-5-methyl-1,2-dihydrospiro[indole-3,4′-piperidin]-2-one] was run?
**A.** Its AC50 is 461 nM.

**Q.** `C[C@]1(O)C[C@@H](n2cnc3cc(OCCN4CCC5(CC4)C(=O)Nc4ccc(Cl)cc45)cc(F)c32)C1` [Compound 454, 5-chloro-1′-(2-((7-fluoro-1-((cis)-3-hydroxy-3-methylcyclobutyl)-1H-benzo[d]imidazol-5-yl)oxy)ethyl)spiro[indoline-3,4′-piperidin]-2-one] was tested. Which AC50 did it give?
**A.** The AC50 was 473 nM.

**Q.** For `[2H]C([2H])([2H])[C@]1(O)C[C@@H](N2C(=O)CCc3cc(OCCN4CCC5(CC4)C(=O)Nc4ccc(Cl)cc45)cnc32)C1` [Compound 461, 5-chloro-1′-[2-({7-oxo-8-[(cis)-3-hydroxy-3-(^2H3)methylcyclobutyl]-5,6,7,8-tetrahydro-1,8-naphthyridin-3-yl}oxy)ethyl]-1,2-dihydrospiro[indole-3,4′-piperidin]-2-one], which AC50 is on record?
**A.** The AC50 was 676 nM.

**Q.** With `CN(c1ccc(OCCN2CCC3(CC2)C(=O)Nc2ccc(C#N)cc23)cc1)S(C)(=O)=O` [Compound 75, N-[4-(2-{5-cyano-2-oxo-1,2-dihydrospiro[indole-3,4′-piperidin]-1′-yl}ethoxy)phenyl]-N-methylmethanesulfonamide] as the compound, how does the AC50 read?
**A.** Its AC50 is 689 nM.
